Several values for one entry are separate records, joined by “and”; a condition that tells them apart may be missing. Identical values can stand only once.
How the values were obtained:
Experiment in all cases: Caliper, Mobility shift assay off-chip
[1] = molecular target: PRKCQ (human) (UniProt Q04759)
[2] = molecular target: CAMK2G (human) (UniProt Q13555)
[3] = molecular target: FER (human) (UniProt P16591)
[4] = molecular target: SGK3 (human) (UniProt Q96BR1)
[5] = molecular target: RPS6KA5 KD1 KD2 (human) (UniProt O75582)
[6] = molecular target: BTK (human) (UniProt Q06187)
[7] = molecular target: MARK1 (human) (UniProt Q9P0L2)
[8] = molecular target: CSNK1A1 (human) (UniProt P48729)
[9] = molecular target: ABL1 (human) (UniProt P00519)
[10] = molecular target: BMX (human) (UniProt P51813)
Sequence of BMX (human) (P51813 whole entry, looked up): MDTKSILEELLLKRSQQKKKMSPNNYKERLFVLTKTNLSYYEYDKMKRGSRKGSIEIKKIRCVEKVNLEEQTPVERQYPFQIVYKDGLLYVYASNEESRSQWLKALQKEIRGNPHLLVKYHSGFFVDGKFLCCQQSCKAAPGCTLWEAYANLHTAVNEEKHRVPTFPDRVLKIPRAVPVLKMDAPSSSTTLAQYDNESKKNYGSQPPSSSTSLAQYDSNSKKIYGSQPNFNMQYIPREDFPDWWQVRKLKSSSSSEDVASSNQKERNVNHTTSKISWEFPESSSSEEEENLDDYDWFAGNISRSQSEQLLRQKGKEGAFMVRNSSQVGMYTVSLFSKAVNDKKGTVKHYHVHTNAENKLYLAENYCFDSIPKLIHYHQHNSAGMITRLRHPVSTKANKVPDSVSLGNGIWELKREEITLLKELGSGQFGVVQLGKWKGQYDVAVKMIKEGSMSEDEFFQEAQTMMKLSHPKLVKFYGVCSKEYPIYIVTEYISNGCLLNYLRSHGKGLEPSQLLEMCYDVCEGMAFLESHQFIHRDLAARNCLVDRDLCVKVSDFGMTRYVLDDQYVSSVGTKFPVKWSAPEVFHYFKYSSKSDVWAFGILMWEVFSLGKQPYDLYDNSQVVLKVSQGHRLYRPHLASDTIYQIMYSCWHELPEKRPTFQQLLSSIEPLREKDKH

[11] = molecular target: PRKCH (human) (UniProt P24723)
Sequence of PRKCH (human) (P24723 whole entry, looked up): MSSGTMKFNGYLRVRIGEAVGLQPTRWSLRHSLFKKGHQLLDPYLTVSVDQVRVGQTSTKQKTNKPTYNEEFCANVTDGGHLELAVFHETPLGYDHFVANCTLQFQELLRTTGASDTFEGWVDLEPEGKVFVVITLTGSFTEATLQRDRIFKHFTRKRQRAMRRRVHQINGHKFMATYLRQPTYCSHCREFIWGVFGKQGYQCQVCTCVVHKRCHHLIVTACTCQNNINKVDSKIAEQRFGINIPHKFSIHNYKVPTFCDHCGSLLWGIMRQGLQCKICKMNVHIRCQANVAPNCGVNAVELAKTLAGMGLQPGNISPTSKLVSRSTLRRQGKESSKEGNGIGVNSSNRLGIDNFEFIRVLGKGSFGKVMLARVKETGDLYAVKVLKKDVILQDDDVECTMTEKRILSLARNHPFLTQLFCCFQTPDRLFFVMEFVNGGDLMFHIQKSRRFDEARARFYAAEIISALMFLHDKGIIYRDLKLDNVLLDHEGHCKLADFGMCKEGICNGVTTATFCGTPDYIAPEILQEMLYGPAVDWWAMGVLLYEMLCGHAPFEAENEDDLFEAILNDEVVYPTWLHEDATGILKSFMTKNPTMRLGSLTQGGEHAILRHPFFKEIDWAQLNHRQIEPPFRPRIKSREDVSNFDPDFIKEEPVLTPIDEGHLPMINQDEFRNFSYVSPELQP

[12] = molecular target: RPS6KB1 (human) (UniProt P23443)
[13] = molecular target: PRKCG (human) (UniProt P05129)
[14] = molecular target: PRKG1 (human) (UniProt Q13976)
[15] = molecular target: BRSK1 (human) (UniProt Q8TDC3)
[16] = molecular target: PRKCB2 (human) (UniProt P05771)
Sequence of PRKCB2 (human) (P05771 whole entry, looked up): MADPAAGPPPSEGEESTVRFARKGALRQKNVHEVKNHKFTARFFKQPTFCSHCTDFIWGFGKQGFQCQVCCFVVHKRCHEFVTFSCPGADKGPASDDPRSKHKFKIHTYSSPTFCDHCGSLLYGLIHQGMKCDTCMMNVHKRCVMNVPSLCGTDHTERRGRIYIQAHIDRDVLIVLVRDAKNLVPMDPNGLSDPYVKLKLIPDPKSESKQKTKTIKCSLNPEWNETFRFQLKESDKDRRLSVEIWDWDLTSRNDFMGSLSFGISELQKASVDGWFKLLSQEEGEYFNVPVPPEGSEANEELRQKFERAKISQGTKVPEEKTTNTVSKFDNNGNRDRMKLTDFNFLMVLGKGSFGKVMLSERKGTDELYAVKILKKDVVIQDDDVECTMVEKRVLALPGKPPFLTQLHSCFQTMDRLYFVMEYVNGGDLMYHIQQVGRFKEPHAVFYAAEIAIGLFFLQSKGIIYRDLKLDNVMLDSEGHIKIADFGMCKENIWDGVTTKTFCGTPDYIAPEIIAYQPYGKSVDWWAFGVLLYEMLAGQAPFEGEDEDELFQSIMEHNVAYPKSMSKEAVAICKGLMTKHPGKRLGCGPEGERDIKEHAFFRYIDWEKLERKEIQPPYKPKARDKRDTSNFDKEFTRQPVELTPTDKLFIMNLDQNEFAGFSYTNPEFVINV

[17] = molecular target: SGK2 (human) (UniProt Q9HBY8)
[18] = molecular target: PRKD1 (human) (UniProt Q15139)
[19] = molecular target: MAPKAPK2 (human) (UniProt P49137)
[20] = molecular target: CSNK1D (human) (UniProt P48730)
Sequence of CSNK1D (human) (P48730 whole entry, looked up): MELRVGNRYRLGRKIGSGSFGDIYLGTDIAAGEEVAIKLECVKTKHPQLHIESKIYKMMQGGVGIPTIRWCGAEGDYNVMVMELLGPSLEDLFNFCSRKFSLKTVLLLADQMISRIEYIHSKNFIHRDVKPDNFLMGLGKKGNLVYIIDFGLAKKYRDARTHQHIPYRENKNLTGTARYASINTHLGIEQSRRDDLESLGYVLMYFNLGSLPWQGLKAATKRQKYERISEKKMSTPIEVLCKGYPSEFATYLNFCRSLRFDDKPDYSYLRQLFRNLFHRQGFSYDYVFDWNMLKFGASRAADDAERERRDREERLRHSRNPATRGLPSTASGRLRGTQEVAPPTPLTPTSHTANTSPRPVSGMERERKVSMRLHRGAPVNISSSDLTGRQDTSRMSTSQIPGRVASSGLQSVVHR

[21] = molecular target: MAPK14 (human) (UniProt Q16539)
Sequence of MAPK14 (human) (Q16539 whole entry, looked up): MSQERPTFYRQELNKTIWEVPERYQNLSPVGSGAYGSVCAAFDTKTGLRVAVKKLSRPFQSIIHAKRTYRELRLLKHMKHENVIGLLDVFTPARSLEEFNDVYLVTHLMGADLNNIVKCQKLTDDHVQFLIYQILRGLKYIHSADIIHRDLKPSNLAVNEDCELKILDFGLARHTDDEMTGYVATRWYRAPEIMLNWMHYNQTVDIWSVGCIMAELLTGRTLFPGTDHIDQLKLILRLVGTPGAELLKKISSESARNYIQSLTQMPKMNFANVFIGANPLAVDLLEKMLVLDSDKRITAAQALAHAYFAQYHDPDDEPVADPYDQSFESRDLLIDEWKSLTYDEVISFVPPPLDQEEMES

[22] = molecular target: PRKCA (human) (UniProt P17252)
[23] = molecular target: RPS6KA4 KD1 KD2 (human) (UniProt O75676)
[24] = molecular target: MAPK3 (human) (UniProt P27361)
[25] = molecular target: IGF1R (human) (UniProt P08069)
Sequence of IGF1R (human) (P08069 whole entry, looked up): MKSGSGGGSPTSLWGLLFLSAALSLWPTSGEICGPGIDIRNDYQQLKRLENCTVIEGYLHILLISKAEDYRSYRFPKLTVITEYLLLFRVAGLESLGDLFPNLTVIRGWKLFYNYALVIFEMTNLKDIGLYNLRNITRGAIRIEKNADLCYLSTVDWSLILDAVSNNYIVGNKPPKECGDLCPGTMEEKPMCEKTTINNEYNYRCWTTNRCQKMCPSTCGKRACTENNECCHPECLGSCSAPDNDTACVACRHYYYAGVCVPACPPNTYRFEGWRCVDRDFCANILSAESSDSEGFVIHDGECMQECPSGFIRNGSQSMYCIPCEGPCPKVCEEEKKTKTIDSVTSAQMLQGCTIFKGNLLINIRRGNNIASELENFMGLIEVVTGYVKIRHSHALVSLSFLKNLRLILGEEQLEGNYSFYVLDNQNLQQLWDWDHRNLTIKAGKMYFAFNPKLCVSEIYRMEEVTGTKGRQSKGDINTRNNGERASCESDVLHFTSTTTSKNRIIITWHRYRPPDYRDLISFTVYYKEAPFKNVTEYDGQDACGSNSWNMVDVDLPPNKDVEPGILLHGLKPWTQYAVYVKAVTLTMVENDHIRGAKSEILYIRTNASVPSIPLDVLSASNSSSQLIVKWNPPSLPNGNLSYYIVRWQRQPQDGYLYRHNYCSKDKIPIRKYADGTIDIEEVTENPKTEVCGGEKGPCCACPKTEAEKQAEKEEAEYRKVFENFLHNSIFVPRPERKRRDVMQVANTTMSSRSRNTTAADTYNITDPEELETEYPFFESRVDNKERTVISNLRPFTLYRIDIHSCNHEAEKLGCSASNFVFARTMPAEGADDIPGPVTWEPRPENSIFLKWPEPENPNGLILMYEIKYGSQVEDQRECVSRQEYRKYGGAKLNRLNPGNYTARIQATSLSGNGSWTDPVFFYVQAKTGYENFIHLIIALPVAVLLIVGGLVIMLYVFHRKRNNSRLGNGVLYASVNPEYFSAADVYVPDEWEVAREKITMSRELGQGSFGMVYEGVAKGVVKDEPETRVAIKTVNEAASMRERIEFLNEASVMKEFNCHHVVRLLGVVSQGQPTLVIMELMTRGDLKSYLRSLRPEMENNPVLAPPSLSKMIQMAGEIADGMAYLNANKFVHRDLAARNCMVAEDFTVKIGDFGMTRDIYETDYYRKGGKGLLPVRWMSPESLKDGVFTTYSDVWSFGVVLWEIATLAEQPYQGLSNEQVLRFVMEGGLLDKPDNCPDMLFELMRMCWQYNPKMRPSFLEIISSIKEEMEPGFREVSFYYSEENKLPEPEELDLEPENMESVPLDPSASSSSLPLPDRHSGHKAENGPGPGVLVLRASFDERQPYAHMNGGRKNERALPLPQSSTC

[26] = molecular target: EGFR (human) (UniProt P00533)
[27] = test system: ABL1 (human), P00519 [Q252H]
[28] = molecular target: MARK3 (human) (UniProt P27448)
[29] = molecular target: AURKA (human) (UniProt O14965)
[30] = molecular target: PRKCZ (human) (UniProt Q05513)
[31] = molecular target: FGFR4 (human) (UniProt P22455)
[32] = molecular target: SGK1 (human) (UniProt O00141)
[33] = molecular target: FYN (human) (UniProt P06241)
[34] = molecular target: AKT3 (human) (UniProt Q9Y243)

Sequence of PRKCQ (human) (Q04759 whole entry, looked up): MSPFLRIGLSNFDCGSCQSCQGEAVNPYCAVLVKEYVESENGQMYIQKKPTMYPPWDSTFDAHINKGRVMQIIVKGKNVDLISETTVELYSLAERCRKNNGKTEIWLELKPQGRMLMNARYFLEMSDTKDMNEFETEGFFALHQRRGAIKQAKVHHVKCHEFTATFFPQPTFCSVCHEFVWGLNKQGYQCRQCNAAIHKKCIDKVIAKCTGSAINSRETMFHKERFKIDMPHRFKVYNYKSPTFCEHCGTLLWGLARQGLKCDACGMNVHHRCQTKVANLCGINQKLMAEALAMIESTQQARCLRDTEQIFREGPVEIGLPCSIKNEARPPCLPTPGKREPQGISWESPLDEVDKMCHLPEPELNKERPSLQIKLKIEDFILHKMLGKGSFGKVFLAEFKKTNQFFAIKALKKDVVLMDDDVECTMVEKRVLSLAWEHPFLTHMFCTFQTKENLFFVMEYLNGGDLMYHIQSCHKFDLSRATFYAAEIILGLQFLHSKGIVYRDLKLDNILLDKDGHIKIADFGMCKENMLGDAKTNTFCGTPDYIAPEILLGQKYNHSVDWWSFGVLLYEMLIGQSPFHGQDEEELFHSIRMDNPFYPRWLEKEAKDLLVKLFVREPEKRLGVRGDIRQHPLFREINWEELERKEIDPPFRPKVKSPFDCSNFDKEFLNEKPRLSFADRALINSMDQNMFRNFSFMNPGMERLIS

## Cn1cc(-c2cnc3ccc4ccc(CS(=O)(=O)NCC5CCCCN5)cc4c(=O)c3c2)cn1 (centres undefined)
[1]; compound 0.1 µM
  inhibition: -15.1%
[1]; compound 1.0 µM
  inhibition: 2.1%
[2]; compound 0.1 µM
  inhibition: -7.4%
[3]; compound 0.1 µM
  inhibition: 1.2%
[4]; compound 0.1 µM
  inhibition: 0.3%
[4]; compound 1.0 µM
  inhibition: -0.7%
[5]; compound 0.1 µM
  inhibition: 0.7%
[5]; compound 1.0 µM
  inhibition: -0.4%
[6]; compound 1.0 µM
  inhibition: 65%
[7]; compound 0.1 µM
  inhibition: -3.9%
[7]; compound 1.0 µM
  inhibition: 33.5%
[8]; compound 0.1 µM
  inhibition: -5%
[8]; compound 1.0 µM
  inhibition: -11%
[9]; compound 0.1 µM
  inhibition: 23.1%
[9]; compound 1.0 µM
  inhibition: 61.5%
[10]; compound 0.1 µM
  inhibition: -17.3%
[10]; compound 1.0 µM
  inhibition: -2.8%
[11]; compound 0.1 µM
  inhibition: 3.1%
[11]; compound 1.0 µM
  inhibition: 1.4%
[12]; compound 0.1 µM
  inhibition: -2.7%
[12]; compound 1.0 µM
  inhibition: 0%
[13]; compound 0.1 µM
  inhibition: 6.2%
[13]; compound 1.0 µM
  inhibition: 2.7%
[14]; compound 0.1 µM
  inhibition: -3.8% and -2.5%
[14]; compound 1.0 µM
  inhibition: -2.7%
[15]; compound 0.1 µM
  inhibition: 2%
[15]; compound 1.0 µM
  inhibition: 5.2%
[16]; compound 0.1 µM
  inhibition: -4.3%
[16]; compound 1.0 µM
  inhibition: -2.5%
[17]; compound 0.1 µM
  inhibition: -9%
[17]; compound 1.0 µM
  inhibition: -11.8%
[18]; compound 0.1 µM
  inhibition: -8.3%
[18]; compound 1.0 µM
  inhibition: -1.9%
[19]; compound 0.1 µM
  inhibition: 7.6%
[19]; compound 1.0 µM
  inhibition: 1.3%
[20]; compound 0.1 µM
  inhibition: 20.4%
[20]; compound 1.0 µM
  inhibition: 7.4%
[21]; compound 0.1 µM
  inhibition: 3.3%
[21]; compound 1.0 µM
  inhibition: -2.7%
[22]; compound 0.1 µM
  inhibition: -28%
[22]; compound 1.0 µM
  inhibition: -0.1%
[23]; compound 0.1 µM
  inhibition: 0.2%
[23]; compound 1.0 µM
  inhibition: -17.3%
[24]; compound 0.1 µM
  inhibition: 7.2%
[24]; compound 1.0 µM
  inhibition: 2.8%
[25]; compound 0.1 µM
  inhibition: 4.9%
[25]; compound 1.0 µM
  inhibition: -8.3%
[26]; compound 0.1 µM
  inhibition: -4.8%
[27]; compound 0.1 µM
  inhibition: 1.4%
[28]; compound 0.1 µM
  inhibition: 2%
[28]; compound 1.0 µM
  inhibition: -4.3%
[29]; compound 0.1 µM
  inhibition: 14.5%
[29]; compound 1.0 µM
  inhibition: 26.8%
[30]; compound 0.1 µM
  inhibition: -8%
[30]; compound 1.0 µM
  inhibition: 1.3%
[31]; compound 0.1 µM
  inhibition: -8.7%
[32]; compound 0.1 µM
  inhibition: 7.2%
[32]; compound 1.0 µM
  inhibition: 9.6%
[33]; compound 0.1 µM
  inhibition: 4.37%
[33]; compound 1.0 µM
  inhibition: 15.1%
[34]; compound 0.1 µM
  inhibition: 2%

## O=C(CCc1ccc2ccc3ncc(C4CCNCC4)cc3c(=O)c2c1)NCc1ccccn1
[1]; compound 0.1 µM
  inhibition: 3.3%
[1]; compound 1.0 µM
  inhibition: 0.5%
[2]; compound 0.1 µM
  inhibition: -3.5%
[2]; compound 1.0 µM
  inhibition: -2.8%
[3]; compound 0.1 µM
  inhibition: -14.2%
[3]; compound 1.0 µM
  inhibition: 0.5%
[4]; compound 0.1 µM
  inhibition: 9%
[4]; compound 1.0 µM
  inhibition: 1%
[5]; compound 0.1 µM
  inhibition: -5.3%
[5]; compound 1.0 µM
  inhibition: -0.9%
[6]; compound 0.1 µM
  inhibition: 2.1%
[6]; compound 1.0 µM
  inhibition: 1.1%
[7]; compound 0.1 µM
  inhibition: -5.4%
[7]; compound 1.0 µM
  inhibition: -1.3%
[8]; compound 0.1 µM
  inhibition: 5%
[8]; compound 1.0 µM
  inhibition: -0.6%
[9]; compound 0.1 µM
  inhibition: -1%
[9]; compound 1.0 µM
  inhibition: 1.6%
[10]; compound 0.1 µM
  inhibition: -10.4%
[10]; compound 1.0 µM
  inhibition: 3.2%
[11]; compound 0.1 µM
  inhibition: 7.2%
[11]; compound 1.0 µM
  inhibition: -8.7%
[12]; compound 0.1 µM
  inhibition: 10.9%
[12]; compound 1.0 µM
  inhibition: -3.3%
[13]; compound 0.1 µM
  inhibition: 10.9%
[13]; compound 1.0 µM
  inhibition: -15%
[14]; compound 0.1 µM
  inhibition: -5% and 4.5%
[14]; compound 1.0 µM
  inhibition: -1.6% and 0.1%
[15]; compound 0.1 µM
  inhibition: -1.6%
[15]; compound 1.0 µM
  inhibition: 1.6%
[16]; compound 0.1 µM
  inhibition: 3.3%
[16]; compound 1.0 µM
  inhibition: -13.3%
[17]; compound 0.1 µM
  inhibition: -1.4%
[17]; compound 1.0 µM
  inhibition: -7.4%
[18]; compound 0.1 µM
  inhibition: 7%
[18]; compound 1.0 µM
  inhibition: 11%
[19]; compound 0.1 µM
  inhibition: -1.1%
[19]; compound 1.0 µM
  inhibition: 0.8%
[20]; compound 0.1 µM
  inhibition: -7.1%
[20]; compound 1.0 µM
  inhibition: -2.9%
[21]; compound 0.1 µM
  inhibition: -10.6%
[21]; compound 1.0 µM
  inhibition: 5.1%
[22]; compound 0.1 µM
  inhibition: -9.4%
[22]; compound 1.0 µM
  inhibition: 15.8%
[23]; compound 0.1 µM
  inhibition: -5.8%
[23]; compound 1.0 µM
  inhibition: 1%
[24]; compound 0.1 µM
  inhibition: 1.7%
[24]; compound 1.0 µM
  inhibition: -0.5%
[25]; compound 0.1 µM
  inhibition: -3%
[25]; compound 1.0 µM
  inhibition: 1.3%
[26]; compound 0.1 µM
  inhibition: -5.8%
[26]; compound 1.0 µM
  inhibition: 9.3%
[27]; compound 0.1 µM
  inhibition: -1.7%
[27]; compound 1.0 µM
  inhibition: 8.1%
[28]; compound 0.1 µM
  inhibition: 0.7%
[28]; compound 1.0 µM
  inhibition: -4.4%
[29]; compound 0.1 µM
  inhibition: 3.7%
[29]; compound 1.0 µM
  inhibition: 22.4%
[30]; compound 0.1 µM
  inhibition: 0.7%
[30]; compound 1.0 µM
  inhibition: 1.2%
[31]; compound 0.1 µM
  inhibition: -3%
[31]; compound 1.0 µM
  inhibition: -3.3%
[32]; compound 0.1 µM
  inhibition: -2.2%
[32]; compound 1.0 µM
  inhibition: -6%
[33]; compound 0.1 µM
  inhibition: -4.2%
[33]; compound 1.0 µM
  inhibition: 2.7%
[34]; compound 0.1 µM
  inhibition: -12.5%
[34]; compound 1.0 µM
  inhibition: 2.1%

Reference: the kinase profiling compilation of Christmann-Franck et al. (2016)
